34 molecules from US20170290820A1, “METHODS AND COMPOSITIONS FOR TREATING BETA-THALASSEMIA AND SICKLE CELL DISEASE” (Academia Sinica, priority 2013, published 2017) can be followed below.

Values after ≈ are worked out from the molar mass of the structure shown. Structures can show the parent of a compound that is named as a salt. Where two headings read alike, the source gives them in different places.

The subject of data set [1] is γ globin gene. Kind of data set: γ globin gene induction by relative quantitative RT-PCR. Format: cell-based, human. The conditions noted are these: for EC (μM) induction of HU IC50 (2.3 fold): concentration inducing γ globin gene expression 2.3-fold, primary human erythroid cells; for γ globin induction (IC50): Table 3, γ globin mRNA induction fold at the compound's IC50, 3 days. The protocol: After 3 days of drug-treatment, the total RNA was extracted by RNA Spin mini kit (Ge-Healthcare) and reverse-transcription was performed by using superscript II (Invitrogen) followed the manufactors instruction. Quantitative PCR was performed on LightCycler with using STBR green master mix followed the manufactors instruction (Roche). The absolute quantitative RT-PCR was calculated by the standard curve with supplying a known copy number of plasmids. The relative quantitative RT-PCR was normalized to the expression levels of the β-actin and compared to the mock control.
To search for new agents, which are capable of inducing the expression of γ globin, a series of naphthalimide derivatives with various substituent(s) on the naphthalene ring and the heterocyclic N-atom (A1-A14, B1-B4, C1-C5, D1, and E1-E3, FIG. 2) were synthesized. These derivatives were subjected to evaluating the γ globin induction abilities in differentiated peripheral blood mononuclear cells (PBMCs). The PBMCs isolated from the peripheral blood of donors were expanded and differentiated for a total of 14 days in a two-phase liquid culture. The resulted primary erythoid cells were then treated with different dosages of naphthalimide derivatives individually for another 3 days. The expression levels of the endogenous γ globin gene were estimated by relative quantitative RT-PCR and the proliferation rates of these cells were examined by AlamarBlue cell viability assay. […]; 2-4.5-folds induction of the γ globin gene expression in the compounds-treated cells (FIG. 3).

The nature of data set [2]: solubility in DMSO and H2O. Format: physicochemical.
Data set [3] deals with primary human erythroid cells. The experiment in a line: AlamarBlue cell viability / proliferation assay. Particulars: for IC50: 3 days.
The mark [4] stands for this setting: DMSO, organic solvent or mixture, read-out: solubility DMSO.
Setting [5] is: Table 1a, concentration reducing proliferation rate of primary human erythroid cells by 50%.
Setting [6] is: Table 3, primary human erythroid cells, proliferation reduced by 50%.

As to `Nc1ccc2c3c(cccc13)C(=O)N(c1ccccc1)C2=O` [Compound E1, N-Phenyl-4-amino-1,8-naphthalimide], the “EC (μM) induction of HU IC50 (2.3 fold)” value in data set [1] was 2.9 µM. Moreover, the solubility in data set [2] (setting [4]) turned out to be 10 mM (≈ 2880 µg/mL). Further, the IC50 in data set [3] (setting [5]) turned out to be 2.2 µM; in data set [3] (setting [6]), 0.3 µM.

With `CN(C)CCN1C(=O)c2cccc3c(Cl)ccc(c23)C1=O` [Compound B4, N-(2-dimethylamino-ethyl)-4-chloro-1,8-naphthalimide hydrochloride], the “γ globin induction (IC50)” value in data set [1] was found to be 3.3 fold. The “EC (μM) induction of HU IC50 (2.3 fold)” value in data set [1] was determined as 2.2 µM. Besides, the “water-solubility (in words)” value in data set [2] (comparison) is reported as “greatly improved water-solubility”. In addition, the solubility in data set [2] (water, H2O, read-out: solubility H2O) was more than 100 mM. Moreover, the IC50 in data set [3] (setting [5]) and in data set [3] (setting [6]) was 5 µM throughout.

`O=C1c2cccc3c(Cl)ccc(c23)C(=O)N1c1ccc(F)cc1` [Compound A12, N-(4-Fluoro-phenyl)-4-chloro-1,8-naphthalimide] displayed a melting point of 274 to 276 °C. This molecule yielded an IC50 in data set [3] (setting [5]) of more than 100 µM.

For the molecule `O=C1c2cccc3cccc(c23)C(=O)N1c1ccccc1` [Compound A1, N-Phenyl-1,8-naphthalimide], the melting point was in the range of 218 to 220 °C. Besides, in data set [2] (setting [4]), the solubility is 10 mM (≈ 2730 µg/mL). In data set [3] (setting [5]), this molecule showed an IC50 of more than 100 µM.

As for `CN(C)CCN1C(=O)c2cccc3c(Cl)ccc(c23)C1=O` (as salt: hydrochloride) [Compound B4, N-(2-dimethylamino-ethyl)-4-chloro-1,8-naphthalimide hydrochloride], the melting point was more than 280 °C.

With `O=C1c2cccc3c(Cl)ccc(c23)C(=O)N1c1cccc(Cl)c1` [Compound A10, N-(3-Chloro-phenyl)-4-chloro-1,8-naphthalimide], the melting point was in the range of 273 to 275 °C. The same molecule registered an IC50 in data set [3] (setting [5]) of more than 100 µM.

As for `CN1C(=O)c2cccc3c([N+](=O)[O-])ccc(c23)C1=O` [Compound C2, N-Methyl-4-nitro-1,8-naphthalimide], the melting point was in the range of 209 to 212.5 °C. Also, in data set [3] (setting [5]), the 50% inhibitory concentration (IC50) is more than 100 µM.

The molecule `CC(=O)Nc1ccc2c3c(cccc13)C(=O)N(CCN(C)C)C2=O` [BO-2559, N-(2-(2-(Dimethylamino)ethyl)-1,3-dioxo-2,3-dihydro-1H-benzo[de]isoquinolin-6-yl)acetamide] showed a melting point of 278 to 279 °C.

Molecule `O=C1c2cccc3c(Cl)ccc(c23)C(=O)N1c1cccc(Br)c1` [Compound A9, N-(3-Bromo-phenyl)-4-chloro-1,8-naphthalimide] yielded a melting point of more than 280 °C. This molecule also returned an IC50 in data set [3] (setting [5]) of more than 100 µM.

As for `C[S+]([O-])c1ccc(-c2nc(-c3ccncc3)c(-c3ccc(F)cc3)[nH]2)cc1` (centres unmarked) [SB203580, reference compound], in data set [1] (data not shown), the “effect of pre-treatment on γ globin elevation triggered by S51021 and SS-2394” value is on record as “efficiently abolished”.

`CN(C)CCN1C(=O)c2cccc3c([N+](=O)[O-])ccc(c23)C1=O` [Compound B2, N-(2-Dimethylamino-ethyl)-4-nitro-1,8-naphthalimide] yielded a melting point of 131 to 133 °C. In addition, the midpoint of inhibition in data set [3] (setting [5]), the IC50, lay at 2.6 µM.

Molecule `O=C1c2cccc3c([N+](=O)[O-])ccc(c23)C(=O)N1c1ccccc1` [Compound A2, N-Phenyl-4-nitro-1,8-naphthalimide] had a melting point of more than 280 °C. Also, the “γ globin induction (IC50)” value in data set [1] is given as 1.1 fold. Moreover, the IC50 in data set [3] (setting [5]) stood at 0.3 µM.

On to `CCNc1ccc2c3c(cccc13)CN(CCN(C)C)C2` [BO-2565, 2-(2-(dimethylamino)ethyl)-N-ethyl-2,3-dihydro-1H-benzo[de]isoquinolin-6-amine], for which the melting point was in the range of 239 to 240 °C.

With `CN(C)CCCN1C(=O)c2cccc3c([N+](=O)[O-])ccc(c23)C1=O` [Compound B3, N-(3-Dimethylamino-propyl)-4-nitro-1,8-naphthalimide], it took 2.3 µM to reach half-maximal inhibition in data set [3] (setting [5]) (IC50).

Regarding `COc1cccc(N2C(=O)c3cccc4c(Cl)ccc(c34)C2=O)c1` [Compound A7, N-(3-Methoxy-phenyl)-4-chloro-1,8-naphthalimide], the melting point was more than 280 °C. This molecule yielded an IC50 in data set [3] (setting [5]) of more than 100 µM.

As for `O=C1c2cccc3c(Cl)ccc(c23)C(=O)N1c1ccc(Br)cc1` [Compound A13, N-(4-Bromo-phenyl)-4-chloro-1,8-naphthalimide], the melting point is more than 280 °C. In addition, the IC50 in data set [3] (setting [5]) was more than 100 µM.

Turning to `CCN1C(=O)c2cccc3c([N+](=O)[O-])ccc(c23)C1=O` [Compound C3, N-Ethyl-4-nitro-1,8-naphthalimide], the melting point fell in the range of 191 to 192.5 °C. Moreover, in data set [3] (setting [5]), the IC50 was more than 100 µM.

`CCN1C(=O)c2cccc3c(Cl)ccc(c23)C1=O` [Compound C5, N-Ethyl-4-chloro-1,8-naphthalimide] showed a melting point of 167 to 170 °C. For the same molecule, the IC50 in data set [3] (setting [5]) is more than 100 µM.

As for `CN1C(=O)c2cccc3c(Cl)ccc(c23)C1=O` [Compound C4, N-Methyl-4-chloro-1,8-naphthalimide], the IC50 in data set [3] (setting [5]) was more than 100 µM.

`O=C1c2cccc3c([N+](=O)[O-])ccc(c23)C(=O)N1c1ccc(Cl)c(Cl)c1` [Compound A3, N-(3,4-Dichloro-phenyl)-4-nitro-1,8-naphthalimide] gave a melting point of more than 280 °C. In addition, 5.2 µM corresponded to half-maximal inhibition in data set [3] (setting [5]) (IC50).

As to `CN(C)CCN1Cc2cccc3cccc(c23)C1=O` [BO-2477, 2-(2-(Dimethylamino)ethyl)-2,3-dihydro-1H-benzo[de]isoquinolin-1-one], the melting point was 253 to 254 °C. For the same molecule, the “γ globin-inducing activity, rank among compounds tested” value in data set [1] (FIG. 8) is “highest γ globin-inducing activity”. Further, the “cytotoxicity IC50 against primary erythroid cells” value in data set [3] (FIG. 8, Example 2) is given as “relatively lower cytotoxicity”.

For `CCOC(=O)CCCN1C(=O)c2cccc3c([N+](=O)[O-])ccc(c23)C1=O` [Compound D1, N-(Butyric acid ethyl ester)-4-nitro-1,8-naphthalimide], the melting point fell in the range of 115 to 116 °C. This molecule also displayed an IC50 in data set [3] (setting [5]) of 6.3 µM.

Take `CN(C)CCN1C(=O)c2cccc3cccc(c23)C1O` (centres unmarked) [BO-2476, 2-(2-(Dimethylamino)ethyl)-3-hydroxy-2,3-dihydro-1H-benzo[de]isoquinolin-1-one]: the melting point is 129 to 130 °C.

In turn, `CCN1C(=O)c2cccc3cccc(c23)C1=O` [Compound C1, N-Ethyl-1,8-naphthalimide] returned an IC50 in data set [3] (setting [5]) of more than 100 µM.

As to `O=C(O)CCCc1ccc(N2C(=O)c3cccc4c([N+](=O)[O-])ccc(c34)C2=O)cc1` [Compound A5, N-(4-Butyric acid-phenyl)-4-nitro-1,8-naphthalimide], the melting point was 254.5 to 256 °C. In data set [3] (setting [5]), this molecule had an IC50 of 6.7 µM.

Molecule `COc1cccc(N2C(=O)c3cccc4c([N+](=O)[O-])ccc(c34)C2=O)c1` [Compound A4, N-(3-Methoxy-phenyl)-4-nitro-1,8-naphthalimide] had a melting point of more than 280 °C. In data set [3] (setting [5]), this molecule yielded an IC50 of 21 µM.

Regarding `CN(C)CCN1Cc2cccc3c(N)ccc(c23)C1` [BO-2560, 2-(2-(Dimethylamino)ethyl)-2,3-dihydro-1H-benzo[de]isoquinolin-6-amine], the melting point was 253 to 254 °C.

`O=C1c2cccc3c(Cl)ccc(c23)C(=O)N1c1ccc(Cl)c(Cl)c1` [Compound A14, N-(3,4-Dichloro-phenyl)-4-chloro-1,8-naphthalimide] gave a melting point of more than 280 °C. In data set [3] (setting [5]), the concentration for half-maximal inhibition (IC50) was more than 100 µM.

In turn, `CN(C)CCCN1C(=O)c2cccc3c(N)ccc(c23)C1=O` (as salt: hydrochloride) [Compound E3, N-(3-dimethylamino-propyl)-4-amino-1,8-naphthalimide hydrochloride] yielded a melting point of more than 280 °C.

`O=C1c2cccc3c(Cl)ccc(c23)C(=O)N1c1ccc(F)c(Br)c1` [Compound A11, N-(3-Bromo-4-fluoro-phenyl)-4-chloro-1,8-naphthalimide] yielded a melting point of more than 280 °C. Also, the IC50 in data set [3] (setting [5]) was more than 100 µM.

`O=C1c2cccc3c(Cl)ccc(c23)C(=O)N1c1cccc(C(F)(F)F)c1` [Compound A8, N-(3-Trifluoromethyl-phenyl)-4-chloro-1,8-naphthalimide] showed a melting point of 278 to 279 °C. The molecule also returned an IC50 in data set [3] (setting [5]) of more than 100 µM.

On to `CCNc1ccc2c3c(cccc13)C(=O)N(CCN(C)C)C2=O` [BO-2564, 2-(2-(Dimethylamino)ethyl)-6-(ethylamino)-1H-benzo[de]isoquinoline-1,3(2H)-dione], for which the melting point fell in the range of 253 to 254 °C.

The molecule `CN(C)CCN1Cc2cccc3c(N(C)C)ccc(c23)C1` [BO-2563, 2-(2-(Dimethylamino)ethyl)-N,N-dimethyl-2,3-dihydro-1H-benzo[de]isoquinolin-6-amine] returned a melting point of 251 to 252 °C.

On to `O=C1c2cccc3c(Cl)ccc(c23)C(=O)N1c1ccccc1` [Compound A6, N-Phenyl-4-chloro-1,8-naphthalimide], for which the melting point is 263 to 265.5 °C. Further, the IC50 in data set [3] (setting [5]) is more than 100 µM.
